# Laboratory results: publication PMC11286291, “A Light-Driven In Vitro Enzymatic Biosystem for the Synthesis of α-Farnesene from Methanol” (Biodesign Research, 2024)
# Target: T1, AFS (Malus domestica, UniProt Q84LB2)
# T1 construct: gene AFS1; N-terminal SUMO fusion, pET28a, E. coli BL21(DE3), Ni-NTA purified
# T1 sequence (Q84LB2 1-576): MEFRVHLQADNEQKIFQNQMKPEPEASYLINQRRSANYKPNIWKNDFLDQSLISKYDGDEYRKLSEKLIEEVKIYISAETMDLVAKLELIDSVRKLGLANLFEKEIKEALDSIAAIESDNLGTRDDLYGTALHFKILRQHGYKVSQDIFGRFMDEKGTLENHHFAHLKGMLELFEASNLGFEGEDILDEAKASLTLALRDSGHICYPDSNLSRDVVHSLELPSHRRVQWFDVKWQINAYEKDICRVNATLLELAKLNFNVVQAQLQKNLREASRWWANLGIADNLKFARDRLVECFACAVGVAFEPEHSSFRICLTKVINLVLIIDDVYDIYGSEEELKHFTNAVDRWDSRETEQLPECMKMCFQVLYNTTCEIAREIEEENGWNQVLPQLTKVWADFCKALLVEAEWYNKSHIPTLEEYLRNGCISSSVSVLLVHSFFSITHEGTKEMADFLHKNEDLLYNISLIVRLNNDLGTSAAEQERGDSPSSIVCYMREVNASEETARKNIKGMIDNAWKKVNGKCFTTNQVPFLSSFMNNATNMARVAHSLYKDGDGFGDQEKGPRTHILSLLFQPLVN
# Test: GC-MS of alpha-farnesene; FPP formed in situ from IPP by IDI and ISPA
# Format: biochemical
# Conditions: 100 mM Hepes pH 7.5, 2 mM IPP, room temperature
compound,measurement,value
CC(C)=CCC/C(C)=C/CC/C(C)=C/COP(=O)(O)OP(=O)(O)O [farnesyl pyrophosphate],GC-MS of alpha-farnesene; FPP formed in situ from IPP by IDI and ISPA,"the yield of AFS was greater than that of MdF, with an α-farnesene yield"
